Data on one molecule can be found in patent publication US20150320774A1, “FORMULATIONS OF CYCLOPHOSPHAMIDE LIQUID CONCENTRATE” (AuroMedics Pharma LLC, priority 2014, published 2015).

The conditions of data set [1]: 500 mg/ml; for colour of solution upon storage: all temperature conditions.
Description: Since these solvents provided more than adequate solubility, the stability of the solutions containing cyclophosphamide at a concentration of 500 mg/ml was examined.
The nature of a further data set: physchem. Particulars: organic solvent or mixture.

The structures appear in SMILES notation. Like-named read-outs stand apart in the source and are kept apart here.

Excerpt for physchem: In this example, studies were initiated to determine the solubility of cyclophosphamide monohydrate in pharmaceutically acceptable solvents such as propylene glycol, polyethylene glycol and ethanol.

Turning to `O.O=P1(N(CCCl)CCCl)NCCCO1` (stereo not shown) [cyclophosphamide monohydrate, 2-[bis(2-chloroethyl)amino]-tetrahydro-2H-1,3,2-oxazaphosphorine-2-oxide monohydrate], the degradation result in data set [1] (PEG 400 as sole solvent) and in data set [1] (PG as sole solvent) was “Significant degradation” in each case. The “colour of solution upon storage” value in data set [1] (PEG 400 as sole solvent) and in data set [1] (PG as sole solvent) was “turning visibly yellow in color” each time. The solubility in “physchem” (ethanol), in the data set “physchem” (polyethylene glycol) and in “physchem” (propylene glycol) was greater than 500 mg/mL each time.

As usually defined, the solubility is how much of the substance goes into solution per volume.
